Where two headings read alike, the source gives them in different places.

Common to all, as to type: cell-based
The target in test [1] is T1, mouse THIK-1 (Mus musculus, UniProt Q8R1P5).
T1 construct: expressed in transfected cells
T1 sequence (Q8R1P5 1-405): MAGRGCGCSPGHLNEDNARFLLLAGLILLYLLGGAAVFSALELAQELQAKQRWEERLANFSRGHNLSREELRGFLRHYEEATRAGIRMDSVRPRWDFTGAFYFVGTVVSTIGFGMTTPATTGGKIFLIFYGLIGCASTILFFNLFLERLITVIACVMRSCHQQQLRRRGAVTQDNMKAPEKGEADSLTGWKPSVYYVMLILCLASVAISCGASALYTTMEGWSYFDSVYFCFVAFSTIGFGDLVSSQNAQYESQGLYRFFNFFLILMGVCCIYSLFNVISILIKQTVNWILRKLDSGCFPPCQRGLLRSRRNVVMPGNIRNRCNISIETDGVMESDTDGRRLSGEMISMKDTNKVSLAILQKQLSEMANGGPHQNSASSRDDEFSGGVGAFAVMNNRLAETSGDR
The test can be described thus: FLIPR thallium influx assay, HEK-mTHIK-1 cells. The method, then: HEK-293 cells were transfected with human THIK-1, TREK-1, TWIK-2, or mouse THIK-1 cDNA cloned into pcDNA3.1, using either Fugene HD transfection reagent (Promega) or electroporation (MaxCyte STX instrument). Cells stably expressing the relevant genes were selected based on resistance to 500 μg/ml geneticin (Gibco). For human THIK-1 and TWIK-2 expressing cells, monoclonal lines were isolated by limited dilution cloning; mouse THIK-1 and human TREK-1 expressing cells were maintained as polyclonal pools. The HEK-293 pools and monoclones stably expressing the relevant genes were maintained in DMEM (Life Technologies), supplemented with 10% FCIII (HyClone, Fetal clone III) and 500 μg/ml geneticin. A CHO-Kv2.1 cell line was purchased from Millipore (accession NM_004975) and maintained in F12 (Life Technologies), supplemented with 10% FCSIII (Thermo Scientific) and 500 μg/ml geneticin (Life Technologies). For thallium flux assays, banks of frozen cell aliquots were prepared the day prior to assay, cells were thawed into media and seeded into PDL coated 384-well plates (Corning) at 25,000 (human/mouse THIK-1, TREK-1) or 30,000 (TWIK-2) cells/well (25 μl/well). CHO-Kv2.1 cells were seeded into non-PDL coated plates (Corning) at 5000 cells/well. Plated cells were incubated overnight at 37 °C, 5% CO2 in a humidified atmosphere. For Q-Patch assays, cells were cultured for 7 days prior to assay, dissociated, and diluted to 1–2.5 million/ml in EX-CELL ACF serum free media containing HEPES (25 mM; Life Technologies), penicillin/streptomycin (100 U/ml, 100 μg/ml; Life Technologies) and a trypsin inhibitor (0.04 mg/ml).
(§1) A fluorescence-based thallium influx assay (Molecular Devices potassium assay kit) was used to monitor channel activity. […] Using a fluorescent imaging plate reader (FLIPR) tetra plate reader, 15 μl thallium stimulus solution was added to the cell plate and the fluorescence signal recorded every second for 1 min (excitation: 470–495 nm, emission: 515–575 nm).

The target in test [2] is T2, TWIK-2 (Homo sapiens, UniProt Q9Y257).
T2 construct: expressed in transfected cells
T2 sequence (Q9Y257 whole entry): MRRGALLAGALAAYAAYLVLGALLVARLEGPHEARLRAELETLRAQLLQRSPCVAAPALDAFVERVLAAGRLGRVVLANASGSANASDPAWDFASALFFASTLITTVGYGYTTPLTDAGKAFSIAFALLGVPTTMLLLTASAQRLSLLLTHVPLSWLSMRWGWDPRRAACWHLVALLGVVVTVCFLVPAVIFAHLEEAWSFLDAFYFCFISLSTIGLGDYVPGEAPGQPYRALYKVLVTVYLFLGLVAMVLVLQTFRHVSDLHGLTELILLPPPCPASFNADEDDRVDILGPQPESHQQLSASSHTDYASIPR
The experiment in a line: FLIPR thallium influx assay, HEK-hTWIK-2 cells. The conditions noted are these: HEK-hTWIK-2, at 30 μM, compared to TPA controls; read-out: inhibition of constitutive activity. The protocol: HEK-293 cells were transfected with human THIK-1, TREK-1, TWIK-2, or mouse THIK-1 cDNA cloned into pcDNA3.1, using either Fugene HD transfection reagent (Promega) or electroporation (MaxCyte STX instrument). Cells stably expressing the relevant genes were selected based on resistance to 500 μg/ml geneticin (Gibco). For human THIK-1 and TWIK-2 expressing cells, monoclonal lines were isolated by limited dilution cloning; mouse THIK-1 and human TREK-1 expressing cells were maintained as polyclonal pools. The HEK-293 pools and monoclones stably expressing the relevant genes were maintained in DMEM (Life Technologies), supplemented with 10% FCIII (HyClone, Fetal clone III) and 500 μg/ml geneticin. A CHO-Kv2.1 cell line was purchased from Millipore (accession NM_004975) and maintained in F12 (Life Technologies), supplemented with 10% FCSIII (Thermo Scientific) and 500 μg/ml geneticin (Life Technologies). […]
as §1

The target in test [3] is T3, THIK-1 (Homo sapiens, UniProt Q9HB14).
T3 construct: expressed in transfected cells
T3 sequence (Q9HB14 1-408): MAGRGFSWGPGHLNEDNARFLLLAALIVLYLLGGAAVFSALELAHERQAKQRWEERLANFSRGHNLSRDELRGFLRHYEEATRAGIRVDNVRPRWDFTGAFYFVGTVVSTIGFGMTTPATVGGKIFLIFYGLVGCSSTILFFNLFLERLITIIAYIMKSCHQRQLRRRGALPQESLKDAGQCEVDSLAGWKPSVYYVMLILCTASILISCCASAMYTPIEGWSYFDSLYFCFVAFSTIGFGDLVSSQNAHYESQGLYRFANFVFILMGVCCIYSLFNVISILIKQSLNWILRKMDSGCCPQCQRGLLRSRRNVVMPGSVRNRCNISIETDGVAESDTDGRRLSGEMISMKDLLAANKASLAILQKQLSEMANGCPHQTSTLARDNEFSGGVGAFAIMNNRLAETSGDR
The test can be described thus: Thallium flux functional wash-off assay, HEK-hTHIK-1 cells. The protocol:
A fluorescence-based thallium influx assay (Molecular Devices potassium assay kit) was used to monitor channel activity. In brief, component A was reconstituted in 17 ml of chloride-free assay buffer (130 mM sodium D-gluconate, 5 mM potassium D-gluconate, 2 mM calcium D-gluconate, 1 mM magnesium D-gluconate, 5 mM NaHCO3, 20 mM HEPES; pH adjusted to 7.4 with NaOH and filtered (0.45 μm filter)) and component C reconstituted in 30 μl of DMSO. Components A and C were combined, and probenecid was added (Life Technologies; final assay concentration (FAC) 4.75 mM for HEK cell lines and 2.47 mM for CHO-Kv2.1) to provide the final dye solution. Media was removed from the cell plates and replaced with dye (20 μl/well) and the plates were incubated at room temperature in the dark for 60 min. On the day of the assay, a diluted compound plate (3x FAC in 1.5% DMSO) was created. Control wells contained either DMSO vehicle (1.5%, 3x FAC) or tetrapentylammonium chloride (TPA; Sigma, 258962; 1.5 mM in 1.5% DMSO, 3x FAC). A 3x thallium stimulation plate was also prepared, to provide a FAC of either 1 mM (human THIK-1) or 3 mM (mouse THIK-1, TREK-1, TWIK-2) thallium sulphate (in assay buffer). For Kv2.1, the FAC of thallium sulphate was 2.6 mM and this was prepared in assay buffer containing potassium sulphate (Sigma P9458; FAC 23.3 mM). Following 60 min of dye loading, 10 μl from the 3x FAC compound plate was added into the cell plate, which was then incubated for 15 min at room temperature in the dark. Using a fluorescent imaging plate reader (FLIPR) tetra plate reader, 15 μl thallium stimulus solution was added to the cell plate and the fluorescence signal recorded every second for 1 min (excitation: 470–495 nm, emission: 515–575 nm).
For the functional wash-off assay, plates were tested in parallel that were run as standard (no wash) with plates that had undergone an additional assay buffer wash and incubation period following compound addition. Briefly, after a 15 min compound incubation, plates were either moved to the FLIPR for immediate thallium addition (standard) or the plates were washed with assay buffer to remove compound solutions (50 μl/well addition and removal), 30 μl/well assay buffer added and the plates incubated for 60 min, followed by thallium addition on the FLIPR (60 min wash).

What is called IC50 is the midpoint of a concentration-inhibition curve. What is called inhibition is the drop in the measured response relative to a control, in per cent. On to `Nc1nonc1-c1nc2ccccc2n1Cc1ccncc1` [C101248], for which the IC50 in test [1] (HEK-mTHIK-1, normalised to TPA controls, read-out: IC50, mouse THIK-1 (thallium influx)) was 49 nM; in test [1] (mouse THIK-1, read-out: IC50, inhibition of mouse THIK-1 (abstract)) it was around 50 nM; in test [3] (compound removed, 60 min incubation in buffer before thallium, read-out: IC50 (60 min wash)) it was 96 nM; in test [3] (standard format, 15 min compound incubation, immediate thallium addition, read-out: IC50 (no wash)), 28 nM. In addition, the maximum inhibition in test [1] (HEK-mTHIK-1, thallium influx) was 100%. Moreover, in test [2], the inhibition at 30 µM stood at 7%. In addition, the entries for the “Hill slope (nH)” value in test [3] (60 min wash) and in test [3] (no wash) were 0.54 and 1.3, respectively. Moreover, in test [3] (60 min wash), the “maximum inhibition (60 min wash)” value came to 93%. Also, the “lower potency after 60 min wash-off compared to standard format” value in test [3] (60 min wash vs no wash) was found to be 3.4 fold. Further, in test [3] (no wash), the “maximum inhibition (no wash)” value came to 101%.

(Values after PMC9841576, “Characterisation of C101248: A novel selective THIK-1 channel inhibitor for the modulation of microglial NLRP3-inflammasome” (Neuropharmacology, 2023).)
